The results in this text go back to ChEMBL document CHEMBL4823311, “Optimization of Naphthyridones into Selective TATA-Binding Protein Associated Factor 1 (TAF1) Bromodomain Inhibitors” (ACS Med Chem Lett, 2021).

Data set [1] has as its target T1, Transcription initiation factor TFIID subunit 1 (Homo sapiens, UniProt P21675). Kind of data set: Inhibition of TAF1 bromodomain 2 (unknown origin) by TR-FRET assay. A general note: Time-resolved FRET reads energy transfer from a long-lived donor to a nearby acceptor.
Data set [2] concerns the target T2, Bromodomain-containing protein 4 (Homo sapiens, UniProt O60885). Description: Inhibition of BRD4 BD1 (unknown origin) by TR-FRET assay.
A short description of data set [3]: Passive permeability of the compound across artificial membrane by AMP assay. The format is ADME. The settings on record: PAMPA; read-out: permeability. Background: In PAMPA a lipid-coated filter parts donor from acceptor wells.
Data set [4] has as its target T1, Transcription initiation factor TFIID subunit 1. Description: Inhibition of human partial length TAF1 bromodomain 2 (D1521 to D1656 residues) expressed in bacterial expression system by BROMOscan assay.
Data set [5] deals with T2, Bromodomain-containing protein 4. Description: Inhibition of human partial length BRD4 BD1 (N44 to E168 residues) expressed in bacterial expression system by BROMOscan assay.
The nature of data set [6]: Intrinsic clearance in human microsomes. Format: ADME, Microsome.
Data set [7] has as its target T2, Bromodomain-containing protein 4. Description: Inhibition of human partial length BRD4 BD2 (K333 to E460 residues) expressed in bacterial expression system by BROMOscan assay.
Data set [8] deals with T3, Bromodomain-containing protein 9 (Homo sapiens, UniProt Q9H8M2).
T3 sequence (Q9H8M2 whole entry): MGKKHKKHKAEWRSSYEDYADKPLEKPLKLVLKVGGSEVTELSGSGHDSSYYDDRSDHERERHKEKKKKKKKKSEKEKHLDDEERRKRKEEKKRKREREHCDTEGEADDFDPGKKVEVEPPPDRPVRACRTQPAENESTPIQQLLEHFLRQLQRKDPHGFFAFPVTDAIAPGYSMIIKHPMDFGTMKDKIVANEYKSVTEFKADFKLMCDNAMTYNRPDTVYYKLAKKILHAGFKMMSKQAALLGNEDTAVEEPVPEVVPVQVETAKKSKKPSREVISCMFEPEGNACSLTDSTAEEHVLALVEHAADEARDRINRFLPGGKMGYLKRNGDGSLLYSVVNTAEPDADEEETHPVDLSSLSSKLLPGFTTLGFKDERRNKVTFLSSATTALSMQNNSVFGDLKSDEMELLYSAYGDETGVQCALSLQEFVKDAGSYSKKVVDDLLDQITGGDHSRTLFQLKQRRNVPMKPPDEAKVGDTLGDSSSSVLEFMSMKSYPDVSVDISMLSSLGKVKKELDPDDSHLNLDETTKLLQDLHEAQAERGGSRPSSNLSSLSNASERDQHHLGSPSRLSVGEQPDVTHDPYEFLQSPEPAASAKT
Kind of data set: Inhibition of human partial length BRD9 (R130 to V259 residues) expressed in bacterial expression system measured by BROMOscan assay.

Data set [9] addresses Chromatin remodeling regulator CECR2 (Homo sapiens, UniProt Q9BXF3). Kind of data set: Inhibition of human partial length CECR2 (P423 to D543 residues) expressed in bacterial expression system by BROMOscan assay.
A further data set deals with T4, Peregrin (Homo sapiens, UniProt P55201).
T4 sequence (P55201 whole entry): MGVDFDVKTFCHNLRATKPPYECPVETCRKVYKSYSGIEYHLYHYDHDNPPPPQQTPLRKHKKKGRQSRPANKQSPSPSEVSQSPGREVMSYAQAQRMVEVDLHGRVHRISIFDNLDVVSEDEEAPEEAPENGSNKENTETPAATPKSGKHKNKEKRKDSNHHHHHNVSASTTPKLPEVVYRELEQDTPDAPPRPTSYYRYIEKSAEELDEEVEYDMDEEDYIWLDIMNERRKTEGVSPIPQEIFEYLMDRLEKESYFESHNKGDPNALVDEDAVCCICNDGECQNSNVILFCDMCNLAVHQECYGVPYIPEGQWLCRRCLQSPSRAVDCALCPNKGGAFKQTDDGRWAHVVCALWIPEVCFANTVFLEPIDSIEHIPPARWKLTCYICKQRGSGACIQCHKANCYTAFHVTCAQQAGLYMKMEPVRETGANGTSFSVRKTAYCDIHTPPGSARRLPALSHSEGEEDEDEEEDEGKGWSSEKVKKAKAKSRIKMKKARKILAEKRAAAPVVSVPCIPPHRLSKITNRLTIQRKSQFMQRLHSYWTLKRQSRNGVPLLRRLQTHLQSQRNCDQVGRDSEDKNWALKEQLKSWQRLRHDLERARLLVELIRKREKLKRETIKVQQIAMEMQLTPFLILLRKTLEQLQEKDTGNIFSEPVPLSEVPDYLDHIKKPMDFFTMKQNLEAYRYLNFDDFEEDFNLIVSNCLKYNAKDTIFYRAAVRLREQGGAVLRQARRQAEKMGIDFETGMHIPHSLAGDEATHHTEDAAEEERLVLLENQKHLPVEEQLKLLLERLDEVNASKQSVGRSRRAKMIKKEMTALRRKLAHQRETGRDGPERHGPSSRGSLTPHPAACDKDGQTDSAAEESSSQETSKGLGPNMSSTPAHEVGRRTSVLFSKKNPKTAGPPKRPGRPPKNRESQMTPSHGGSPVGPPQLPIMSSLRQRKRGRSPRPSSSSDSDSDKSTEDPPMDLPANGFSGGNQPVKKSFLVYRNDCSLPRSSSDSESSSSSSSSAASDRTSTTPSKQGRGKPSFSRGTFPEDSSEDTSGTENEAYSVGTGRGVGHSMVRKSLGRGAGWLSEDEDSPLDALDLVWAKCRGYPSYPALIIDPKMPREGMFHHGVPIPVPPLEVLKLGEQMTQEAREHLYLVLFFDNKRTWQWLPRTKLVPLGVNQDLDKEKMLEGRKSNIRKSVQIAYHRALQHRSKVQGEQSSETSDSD
Kind of data set: Inhibition of human partial length BRPF1 (E627 to G740 residues) expressed in bacterial expression system by BROMOscan assay.

For data set [10], the target named is T1, Transcription initiation factor TFIID subunit 1. Description: Displacement of Halo-tagged histone H4 from NanoLuc-tagged TAF1 bromodomain 2 (unknown origin) expressed in HEK293 cells measured after 4 to 6 hrs by NanoBRET assay. The format is cell-based. For orientation: BRET reads energy transfer from a luciferase to a nearby fluorophore.
The target in data set [11] is T2, Bromodomain-containing protein 4. Kind of data set: Inhibition of BRD4 BD2 (unknown origin) measured by TR-FRET assay.
The nature of data set [12]: Solubility of the compound by CAD method. The format is physicochemical.

≈ marks a conversion by molar mass, not a printed value.

T1 sequence (P21675 whole entry): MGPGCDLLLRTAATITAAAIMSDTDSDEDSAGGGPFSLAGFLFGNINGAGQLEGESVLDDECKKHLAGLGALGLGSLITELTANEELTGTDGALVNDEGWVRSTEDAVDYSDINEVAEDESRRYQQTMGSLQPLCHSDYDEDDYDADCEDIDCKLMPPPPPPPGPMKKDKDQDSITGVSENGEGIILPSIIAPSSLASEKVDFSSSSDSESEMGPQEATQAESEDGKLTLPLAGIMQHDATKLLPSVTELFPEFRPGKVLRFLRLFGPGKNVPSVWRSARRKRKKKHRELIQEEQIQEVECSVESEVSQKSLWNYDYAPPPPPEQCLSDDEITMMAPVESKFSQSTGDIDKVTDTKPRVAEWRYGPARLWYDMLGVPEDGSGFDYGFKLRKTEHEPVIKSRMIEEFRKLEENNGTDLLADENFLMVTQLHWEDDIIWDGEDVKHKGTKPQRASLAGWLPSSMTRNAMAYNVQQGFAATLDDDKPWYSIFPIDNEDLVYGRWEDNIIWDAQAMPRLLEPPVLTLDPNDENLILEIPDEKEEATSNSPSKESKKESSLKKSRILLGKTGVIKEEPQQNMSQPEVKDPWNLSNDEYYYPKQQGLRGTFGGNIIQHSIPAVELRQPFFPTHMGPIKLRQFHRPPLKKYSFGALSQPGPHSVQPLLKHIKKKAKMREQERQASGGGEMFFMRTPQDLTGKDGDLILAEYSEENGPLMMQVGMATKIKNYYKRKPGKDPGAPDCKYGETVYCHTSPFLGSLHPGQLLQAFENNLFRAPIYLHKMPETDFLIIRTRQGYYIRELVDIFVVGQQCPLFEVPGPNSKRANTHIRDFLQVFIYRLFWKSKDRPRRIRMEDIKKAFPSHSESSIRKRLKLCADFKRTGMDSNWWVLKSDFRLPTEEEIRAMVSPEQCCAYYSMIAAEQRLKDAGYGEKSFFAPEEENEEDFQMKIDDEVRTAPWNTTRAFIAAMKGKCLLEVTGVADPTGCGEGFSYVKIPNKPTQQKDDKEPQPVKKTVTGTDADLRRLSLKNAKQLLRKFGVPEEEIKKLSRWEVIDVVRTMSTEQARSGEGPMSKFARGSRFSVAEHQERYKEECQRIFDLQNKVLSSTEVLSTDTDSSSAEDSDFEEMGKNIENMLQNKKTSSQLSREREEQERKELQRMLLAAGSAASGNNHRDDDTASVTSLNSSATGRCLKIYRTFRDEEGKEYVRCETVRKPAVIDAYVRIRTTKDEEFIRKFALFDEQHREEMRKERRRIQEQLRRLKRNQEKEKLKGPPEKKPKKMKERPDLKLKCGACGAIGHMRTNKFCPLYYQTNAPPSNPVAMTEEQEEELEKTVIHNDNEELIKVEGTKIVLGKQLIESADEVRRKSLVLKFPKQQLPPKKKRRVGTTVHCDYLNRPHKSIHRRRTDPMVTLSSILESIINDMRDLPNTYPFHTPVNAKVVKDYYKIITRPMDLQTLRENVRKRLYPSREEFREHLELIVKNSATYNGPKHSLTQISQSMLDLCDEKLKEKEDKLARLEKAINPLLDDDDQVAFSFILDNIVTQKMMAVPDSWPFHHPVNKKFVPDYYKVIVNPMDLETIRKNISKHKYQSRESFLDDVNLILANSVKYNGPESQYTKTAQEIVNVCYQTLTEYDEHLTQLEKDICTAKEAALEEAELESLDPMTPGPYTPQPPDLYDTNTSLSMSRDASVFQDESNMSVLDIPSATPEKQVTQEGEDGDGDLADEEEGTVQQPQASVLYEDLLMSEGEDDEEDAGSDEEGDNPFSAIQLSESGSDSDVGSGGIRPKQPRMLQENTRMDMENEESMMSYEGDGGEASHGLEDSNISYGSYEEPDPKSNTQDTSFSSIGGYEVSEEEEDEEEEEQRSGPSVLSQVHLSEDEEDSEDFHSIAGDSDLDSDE
Chain of Chromatin remodeling regulator CECR2 (Q9BXF3 whole entry, the tested form may be a part): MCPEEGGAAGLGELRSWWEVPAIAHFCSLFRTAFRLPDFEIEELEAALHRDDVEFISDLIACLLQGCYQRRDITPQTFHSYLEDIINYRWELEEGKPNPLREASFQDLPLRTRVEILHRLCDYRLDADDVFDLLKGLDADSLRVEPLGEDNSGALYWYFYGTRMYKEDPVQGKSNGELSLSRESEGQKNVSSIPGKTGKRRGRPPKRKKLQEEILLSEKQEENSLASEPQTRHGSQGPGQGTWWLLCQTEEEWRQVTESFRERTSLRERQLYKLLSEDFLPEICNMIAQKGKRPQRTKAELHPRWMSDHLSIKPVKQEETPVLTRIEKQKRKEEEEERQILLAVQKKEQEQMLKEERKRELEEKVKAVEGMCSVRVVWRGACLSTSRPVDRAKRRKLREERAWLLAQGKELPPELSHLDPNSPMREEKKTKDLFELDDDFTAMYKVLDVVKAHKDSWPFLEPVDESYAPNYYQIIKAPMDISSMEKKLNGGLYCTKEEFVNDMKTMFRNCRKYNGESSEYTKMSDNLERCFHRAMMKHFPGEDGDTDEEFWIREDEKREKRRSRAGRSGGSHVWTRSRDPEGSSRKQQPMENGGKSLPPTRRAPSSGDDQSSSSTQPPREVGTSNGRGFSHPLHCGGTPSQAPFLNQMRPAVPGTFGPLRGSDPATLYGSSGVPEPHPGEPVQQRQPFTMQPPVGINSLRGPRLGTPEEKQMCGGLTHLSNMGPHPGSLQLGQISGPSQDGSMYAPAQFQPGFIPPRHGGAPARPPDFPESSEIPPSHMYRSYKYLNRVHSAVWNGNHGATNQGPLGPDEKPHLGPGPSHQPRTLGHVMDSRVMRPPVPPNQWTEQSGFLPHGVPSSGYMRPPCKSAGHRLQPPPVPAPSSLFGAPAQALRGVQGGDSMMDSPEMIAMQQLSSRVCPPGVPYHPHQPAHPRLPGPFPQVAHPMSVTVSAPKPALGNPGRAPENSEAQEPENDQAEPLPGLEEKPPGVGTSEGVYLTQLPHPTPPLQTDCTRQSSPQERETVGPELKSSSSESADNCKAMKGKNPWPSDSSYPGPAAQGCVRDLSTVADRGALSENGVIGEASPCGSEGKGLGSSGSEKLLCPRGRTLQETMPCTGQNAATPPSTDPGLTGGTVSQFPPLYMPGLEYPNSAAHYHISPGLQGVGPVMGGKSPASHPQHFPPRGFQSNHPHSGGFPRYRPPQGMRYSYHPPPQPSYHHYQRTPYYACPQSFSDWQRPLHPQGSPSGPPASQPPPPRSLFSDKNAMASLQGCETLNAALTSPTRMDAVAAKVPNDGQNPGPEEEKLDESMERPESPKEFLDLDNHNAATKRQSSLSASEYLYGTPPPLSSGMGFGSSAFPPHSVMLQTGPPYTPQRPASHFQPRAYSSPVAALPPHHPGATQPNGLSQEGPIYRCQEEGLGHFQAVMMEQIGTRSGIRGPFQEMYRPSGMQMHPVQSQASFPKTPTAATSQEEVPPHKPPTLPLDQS

Broadly, the IC50 is the concentration that inhibits the measured activity by half. Read a low IC50 as inhibition by little substance. The Ki is a dissociation constant, usually derived from enzyme kinetics or from competition with a known ligand. In general, CLint scaled refers to the rate of metabolic loss divided by the concentration. Low readings indicate slow turnover, high ones rapid turnover. In general, solubility refers to how much of the substance goes into solution per volume. Lower therefore signals a poorly soluble substance. As to `Cc1cc2c(C3=CCOCC3)cnc(NC3CCN(C(=O)C(F)(F)CN)CC3)c2[nH]c1=O`, the IC50 was 39.8 nM in data set [1], greater than 20000 nM in data set [2], greater than 10000 nM in data set [10] and 5010 nM in data set [11]. Further, the Papp in data set [3] stood at 6.2 ×10⁻⁶ cm/s. Moreover, the Ki was 0.794 nM in data set [4]; greater than 5010 nM in data set [5]; 794 nM in data set [7]; 39.8 nM in [8]; 1000 nM in data set [9]; 5010 nM at Peregrin. Besides, the CLint scaled in data set [6] is 20.4 mL/min/kg. Also, in data set [12], the concentration in solution (solubility) came to 24 µg/mL (≈ 53.6 µM).
